Experimental data: US9718785B2, “1,3-Disubstituted cyclopentane derivatives” (MERCK PATENT GMBH, priority 2013, dated 2017)

Target: T1, human recombinant full-length fatty acid synthase (FASN) (Homo sapiens, UniProt P49327)
T1 construct: 40 nM human recombinant full-length fatty acid synthase (produced in-house in SF9 cells); made in house; host or cells: SF9 insect cells
Experiment: Biochemical activity testing of human fatty acid synthase FASN (NADPH fluorescence intensity enzyme assay)
Conditions: human recombinant FASN, enzyme assay
Excerpt: Biochemical Activity Testing of Human Fatty Acid Synthase FASN
Fatty acid synthase FASN is a multifunctional enzyme with seven catalytic activities thereby synthesising long chain fatty acids especially palmitoyl-CoA in the presence of co-factor NADPH starting from the substrates acetyl-CoA and malonyl-CoA. The reductive synthesis is realized by the oxidation of NADPH to NADP. Since NADPH has a high fluorescence intensity quantum yield compared to NADP with excitation at 340 nm and emission at 460 nm, the reaction can be monitored via the decrease in fluorescence intensity. The biochemical FASN activity testing was performed as 384 well two-time-point kinetic fluorescence intensity assay format in Greiner low volume medium binding 384-well black microtiter plates in a total assay volume of 8 μl and was used for high throughput screen. In each well 3 μl 40 nM human recombinant full-length fatty acid synthase (produced in-house in SF9 cells) were dispensed in the following assay buffer: 50 mM potassium phosphate buffer pH 7.0, 0.005% (w/v) BSA, 2 mM Glutathione, 0.02% Tween-20. Then 2 μl of 200 μM NADPH in assay buffer were added, followed by the addition of the test compounds in 10 dilution concentrations starting with 30 μM (final concentration) to get a final DMSO content of 1% (v/v). The mixture was incubated for at least 15 min at room temperature. After the pre-incubation the enzymatic reaction was started by the addition of 2 μl substrate solution (80 μM acetyl-CoA, 240 μM malonyl-CoA). A first fluorescence intensity measurement (time point one) was performed with an Envision multimode reader (Perkin Elmer LAS Germany GmbH) at excitation wavelength 340 nm (lamp mode) and emission wavelength 460 nm. The reaction was incubated for 30 minutes at room temperature. After this the fluorescence intensity was measured again in the Envision using the same parameters as described above (second time point measurement). The data were analysed by subtracting the first time point measurement value from the second time point measurement value (after the enzymatic reaction). The differences of the emission signals were determined. These reflect directly the conversion rate of NADPH. The full value used was the inhibitor-free reaction. A pharmacological zero value was used like GSK837149A (Sigma-Aldrich) in a final concentration of 5-10 μM. The inhibitory values (IC50) were determined using either the program Symyx Assay Explorer® or Condosseo® from GeneData.

T1 sequence (P49327 whole entry): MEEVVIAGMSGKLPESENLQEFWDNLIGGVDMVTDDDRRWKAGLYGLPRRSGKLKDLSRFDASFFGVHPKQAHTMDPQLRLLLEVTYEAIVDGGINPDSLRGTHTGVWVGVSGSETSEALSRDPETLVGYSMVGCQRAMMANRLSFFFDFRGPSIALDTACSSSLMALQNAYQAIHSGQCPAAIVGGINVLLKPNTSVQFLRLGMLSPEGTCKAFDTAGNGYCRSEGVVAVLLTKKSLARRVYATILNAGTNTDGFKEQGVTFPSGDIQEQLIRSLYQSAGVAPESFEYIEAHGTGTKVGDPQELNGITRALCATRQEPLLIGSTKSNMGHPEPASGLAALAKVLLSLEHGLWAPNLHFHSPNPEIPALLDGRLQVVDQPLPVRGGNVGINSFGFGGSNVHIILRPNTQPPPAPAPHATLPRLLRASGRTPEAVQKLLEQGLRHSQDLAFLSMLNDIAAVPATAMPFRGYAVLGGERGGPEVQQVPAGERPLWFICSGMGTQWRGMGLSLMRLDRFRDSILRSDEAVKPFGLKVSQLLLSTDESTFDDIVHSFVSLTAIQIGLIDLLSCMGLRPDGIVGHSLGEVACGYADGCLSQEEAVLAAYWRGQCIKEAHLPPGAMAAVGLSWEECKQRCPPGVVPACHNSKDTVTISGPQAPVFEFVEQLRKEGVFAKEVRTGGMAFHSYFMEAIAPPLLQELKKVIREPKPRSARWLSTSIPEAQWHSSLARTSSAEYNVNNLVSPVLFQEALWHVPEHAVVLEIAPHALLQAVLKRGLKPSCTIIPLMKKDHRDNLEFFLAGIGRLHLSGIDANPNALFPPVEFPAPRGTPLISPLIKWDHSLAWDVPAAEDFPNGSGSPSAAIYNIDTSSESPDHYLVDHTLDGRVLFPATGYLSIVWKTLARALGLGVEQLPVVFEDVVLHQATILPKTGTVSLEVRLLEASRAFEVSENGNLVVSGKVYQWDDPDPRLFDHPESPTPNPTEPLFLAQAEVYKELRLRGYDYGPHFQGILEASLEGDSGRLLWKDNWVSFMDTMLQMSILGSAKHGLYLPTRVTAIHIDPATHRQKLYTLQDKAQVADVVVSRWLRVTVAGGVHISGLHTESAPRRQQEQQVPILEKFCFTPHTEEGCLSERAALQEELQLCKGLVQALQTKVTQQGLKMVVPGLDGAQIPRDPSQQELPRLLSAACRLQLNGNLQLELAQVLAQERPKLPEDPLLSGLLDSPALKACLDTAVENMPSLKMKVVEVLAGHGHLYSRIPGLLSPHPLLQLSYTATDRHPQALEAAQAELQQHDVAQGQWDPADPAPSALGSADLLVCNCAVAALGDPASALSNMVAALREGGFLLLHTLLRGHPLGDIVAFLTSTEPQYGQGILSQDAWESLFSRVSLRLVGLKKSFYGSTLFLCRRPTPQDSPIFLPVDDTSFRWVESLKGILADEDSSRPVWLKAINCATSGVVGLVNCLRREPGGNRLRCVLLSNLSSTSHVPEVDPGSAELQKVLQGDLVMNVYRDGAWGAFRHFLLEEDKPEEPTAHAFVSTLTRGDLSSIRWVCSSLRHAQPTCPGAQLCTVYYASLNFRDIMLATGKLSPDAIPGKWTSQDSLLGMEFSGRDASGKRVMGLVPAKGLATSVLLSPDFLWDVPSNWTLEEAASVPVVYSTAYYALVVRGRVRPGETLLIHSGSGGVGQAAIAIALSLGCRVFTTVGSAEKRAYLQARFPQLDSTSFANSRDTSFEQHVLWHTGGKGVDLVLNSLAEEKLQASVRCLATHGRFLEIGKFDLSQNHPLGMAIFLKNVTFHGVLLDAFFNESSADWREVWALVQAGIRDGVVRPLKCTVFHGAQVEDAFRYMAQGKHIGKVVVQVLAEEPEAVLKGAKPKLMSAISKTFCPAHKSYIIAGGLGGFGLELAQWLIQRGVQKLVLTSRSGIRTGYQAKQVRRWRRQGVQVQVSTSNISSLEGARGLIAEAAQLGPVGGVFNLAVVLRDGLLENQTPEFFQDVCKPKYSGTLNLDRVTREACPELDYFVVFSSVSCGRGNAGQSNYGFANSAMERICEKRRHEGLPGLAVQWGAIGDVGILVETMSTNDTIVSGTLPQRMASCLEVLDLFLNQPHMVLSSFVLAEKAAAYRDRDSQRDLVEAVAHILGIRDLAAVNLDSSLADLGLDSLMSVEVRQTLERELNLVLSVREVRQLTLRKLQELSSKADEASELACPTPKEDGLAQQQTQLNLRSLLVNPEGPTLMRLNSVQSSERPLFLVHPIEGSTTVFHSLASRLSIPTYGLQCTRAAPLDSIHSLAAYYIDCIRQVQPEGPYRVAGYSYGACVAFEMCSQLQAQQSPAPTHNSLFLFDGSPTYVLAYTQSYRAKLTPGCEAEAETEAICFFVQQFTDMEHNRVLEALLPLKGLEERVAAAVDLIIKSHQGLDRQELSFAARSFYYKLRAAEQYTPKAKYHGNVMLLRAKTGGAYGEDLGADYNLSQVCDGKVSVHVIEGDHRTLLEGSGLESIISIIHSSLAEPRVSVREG

IC50, < 300 nM:
CCC(=O)N[C@H]1CC[C@@H](n2cnnc2-c2ccc(-c3ccc(C#N)cc3)cc2)C1 [Compound A40, N-{(1S,3R)-3-[3-(4′-cyano-biphenyl-4-yl)-[1,2,4]triazol-4-yl]-cyclopentyl}-propionamide]
CCC(=O)N[C@H]1CC[C@@H](n2nncc2-c2ccc(-c3ccc(C)cc3)cc2)C1 [Compound A84, N-{(1S,3R)-3-[5-(4′-Methyl-biphenyl-4-yl)-[1,2,3]triazol-1-yl]-cyclopentyl}-propionamide]
CCNC(=O)[C@H]1CC[C@@H](n2cncc2-c2ccc(-c3ccccc3)cc2)C1 [Compound A2, (1S,3R)-3-(5-biphenyl-4-yl-imidazol-1-yl)-cyclopentanecarboxylic acid ethylamide]
CCC(=O)N[C@H]1CC[C@@H](n2cnnc2-c2ccc(-c3nc4ccccc4o3)cc2)C1 [Compound A37, N-{(1S,3R)-3-[3-(4-benzoxazol-2-yl-phenyl)-[1,2,4]triazol-4-yl]-cyclopentyl}-propionamide]
CCNC(=O)[C@H]1CC[C@@H](n2nncc2-c2ccc(-c3ccc(OC)c(OC)c3)cc2)C1 [Compound A102, (1S,3R)-3-[5-(3′,4′-Dimethoxy-biphenyl-4-yl)-[1,2,3]triazol-1-yl]-cyclopentanecarboxylic acid ethylamide]
CCC(=O)N[C@H]1CC[C@@H](n2nncc2-c2ccc(-c3ccc4cc[nH]c4c3)cc2)C1 [Compound A59, N-((1S,3R)-3-{5-[4-(1H-Indol-6-yl)-phenyl]-[1,2,3]triazol-1-yl}-cyclopentyl)-propionamide]
CCNC(=O)[C@H]1CC[C@@H](n2cnnc2-c2ccc(-c3ccc(Cl)cc3)cc2)C1 [Compound A31, (1S,3R)-3-[3-(4′-chloro-biphenyl-4-yl)[1,2,4]triazol-4-yl]-cyclopentanecarboxylic acid ethylamide]
CCC(=O)N[C@H]1CC[C@@H](n2nncc2-c2ccc(-c3ccc(Cl)c(F)c3)cc2)C1 [Compound A75, N-{(1S,3R)-3-[5-(4′-Chloro-3′-fluoro-biphenyl-4-yl)-[1,2,3]triazol-1-yl]-cyclopentyl}-propionamide]
CCNC(=O)[C@H]1CC[C@@H](n2cncc2-c2ccc(-c3nc4ccccc4o3)cc2)C1 [Compound A1, (1S,3R)-3-[5-(4-benzooxazol-2-yl-phenyl)-imidazol-1-yl]-cyclopentanecarboxylic acid ethylamide]
CCNC(=O)[C@H]1CC[C@@H](n2nncc2-c2ccc(-c3ccc(C#N)cc3)cc2)C1 [Compound A15, (1S,3R)-3-[5-(4′-cyano-biphenyl-4-yl)-[1,2,3]triazol-1-yl]-cyclopentanecarboxylic acid ethylamide]
CCC(=O)N[C@H]1CC[C@@H](n2nncc2-c2ccc(-c3ccc4c(ccn4C)c3)cc2)C1 [Compound A71, N-((1S,3R)-3-{5-[4-(1-Methyl-1H-indol-5-yl)-phenyl]-[1,2,3]triazol-1-yl}-cyclopentyl)-propionamide]
CCC(=O)N[C@H]1CC[C@@H](n2nncc2-c2ccc(-c3cnc4ccccc4c3)cc2)C1 [Compound A70, N-{(1S,3R)-3-[5-(4-Quinolin-3-yl-phenyl)-[1,2,3]triazol-1-yl]-cyclopentyl}-propionamide]
CCNC(=O)[C@H]1CC[C@@H](n2nncc2-c2ccc(-c3ccc(C#N)cc3F)cc2)C1 [Compound A106, (1S,3R)-3-[5-(4′-Cyano-2′-fluoro-biphenyl-4-yl)-[1,2,3]triazol-1-yl]-cyclopentanecarboxylic acid ethylamide]
CCC(=O)N[C@H]1CC[C@@H](n2nncc2-c2ccc(-c3ccc(F)c(Cl)c3)cc2)C1 [Compound A85, N-{(1S,3R)-3-[5-(3′-Chloro-4′-fluoro-biphenyl-4-yl)-[1,2,3]triazol-1-yl]-cyclopentyl}-propionamide]
CCC(=O)N[C@H]1CC[C@@H](n2nncc2-c2ccc(-c3ccc(OC)cc3C)cc2)C1 [Compound A82, N-{(1S,3R)-3-[5-(4′-Methoxy-2′-methyl-biphenyl-4-yl)-[1,2,3]triazol-1-yl]-cyclopentyl}-propionamide]
CCC(=O)N[C@H]1CC[C@@H](n2nncc2-c2ccc(-c3ccc4c(c3)CC(=O)N4)cc2)C1 [Compound A79, N-((1S,3R)-3-{5-[4-(2-Oxo-2,3-dihydro-1H-indol-5-yl)-phenyl]-[1,2,3]triazol-1-yl}-cyclopentyl)-propionamide]
CCC(=O)N[C@H]1CC[C@@H](n2cncc2-c2ccc(-c3ccc(Cl)cc3)cc2)C1 [Compound A21, N-{(1S,3R)-3-[5-(4′-chloro-biphenyl-4-yl)-imidazol-1-yl]-cyclopentyl}-propionamide]
CCC(=O)N[C@H]1CC[C@@H](n2cncc2-c2ccc(-c3nc4ccccc4o3)cc2)C1 [Compound A19, N-{(1S,3R)-3-[5-(4-benzoxazol-2-yl-phenyl)-imidazol-1-yl]-cyclopentyl}-propionamide]
CCC(=O)N[C@H]1CC[C@@H](n2nncc2-c2ccc(-c3cc4cn[nH]c4cc3C)cc2)C1 [Compound A78, N-((1S,3R)-3-{5-[4-(6-Methyl-1H-indazol-5-yl)-phenyl]-[1,2,3]triazol-1-yl}-cyclopentyl)-propionamide]
CCC(=O)N[C@H]1CC[C@@H](n2nncc2-c2ccc(-c3ccc4[nH]ccc4c3F)cn2)C1 [Compound A116, N-((1S,3R)-3-{5-[5-(4-Fluoro-1H-indol-5-yl)-pyridin-2-yl]-[1,2,3]triazol-1-yl}-cyclopentyl)-propionamide]
CCC(=O)N[C@H]1CC[C@@H](n2nncc2-c2ccc(-c3ccc4[nH]ccc4n3)cc2)C1 [Compound A113, N-((1S,3R)-3-{5-[4-(1H-Pyrrolo[3,2-b]pyridin-5-yl)-phenyl]-[1,2,3]triazol-1-yl}-cyclopentyl)-propionamide]
CC1(NC(=O)[C@H]2CC[C@@H](n3cncc3-c3ccc(-c4ccc5[nH]nnc5c4)cc3)C2)CC1 [Compound A9, (1S,3R)-3-{5-[4-(1H-benzotriazol-5-yl)-phenyl]-imidazol-1-yl}-cyclopentanecarboxylic acid (1-methyl-cyclopropyl)-amide]
CCC(=O)N[C@H]1CC[C@@H](n2cnnc2-c2ccc(-c3ccc4cc[nH]c4c3)cc2)C1 [Compound A44, N-((1S,3R)-3-{3-[4-(1H-indol-6-yl)-phenyl]-[1,2,4]triazol-4-yl}-cyclopentyl)-propionamide]
CC1(NC(=O)[C@H]2CC[C@@H](n3cncc3-c3ccc(-c4cccc5[nH]ncc45)cc3)C2)CC1 [Compound A11, (1S,3R)-3-{5-[4-(1H-indazol-4-yl)-phenyl]-imidazol-1-yl}-cyclopentanecarboxylic acid (1-methyl-cyclopropyl)-amide]
CCC(=O)N[C@H]1CC[C@@H](n2cnnc2-c2ccc(-c3cc4cn[nH]c4cc3C)cc2)C1 [Compound A98, N-((1S,3R)-3-{3-[4-(6-Methyl-1H-indazol-5-yl)-phenyl]-[1,2,4]triazol-4-yl}-cyclopentyl)-propionamide]
CCC(=O)N[C@H]1CC[C@@H](n2nncc2-c2ccc(-c3ccc4[nH]ccc4c3F)nc2)C1 [Compound A108, N-((1S,3R)-3-{5-[6-(4-Fluoro-1H-indol-5-yl)-pyridin-3-yl]-[1,2,3]triazol-1-yl}-cyclopentyl)-propionamide]
CCNC(=O)[C@H]1CC[C@@H](n2cncc2-c2ccc(-c3ccc(Cl)cc3)cc2)C1 [Compound A3, (1S,3R)-3-[5-(4′-Chloro-biphenyl-4-yl)-imidazol-1-yl]-cyclopentanecarboxylic acid ethylamide]
CC1(NC(=O)[C@H]2CC[C@@H](n3cncc3-c3ccc(-c4ccc5[nH]ccc5c4)cc3)C2)CC1 [Compound A10, (1S,3R)-3-{5-[4-(1H-indol-5-yl)-phenyl]-imidazol-1-yl}-cyclopentanecarboxylic acid (1-methyl-cyclopropyl)-amide]
CCC(=O)N[C@H]1CC[C@@H](n2cnnc2-c2ccc(-c3cccc4[nH]ncc34)cc2)C1 [Compound A42, N-((1S,3R)-3-{3-[4-(1H-indazol-4-yl)-phenyl]-[1,2,4]triazol-4-yl}-cyclopentyl)-propionamide]
CCNC(=O)[C@H]1CC[C@@H](n2nncc2-c2ccc(-c3ccc4cc[nH]c4c3)cc2)C1 [Compound A16, (1S,3R)-3-{5-[4-(1H-indol-6-yl)-phenyl]-[1,2,3]triazol-1-yl}-cyclopentanecarboxylic acid ethylamide]
